# Laboratory results from patent US9617242B2, “Histone demethylase inhibitors” (priority 2012, dated 2017).
# pIC50: −log10 of the molar value.
# Key:
# Jarid1A = Jarid1A (Homo sapiens (Human), UniProt P29375); assay: Jarid1A in vitro enzyme inhibition assay (TR-FRET); type: biochemical
# Jarid1B = Jarid1B (Homo sapiens (Human), UniProt Q9UGL1); assay: Jarid1B in vitro enzyme inhibition assay (TR-FRET); type: biochemical
# JMJD2C = JMJD2C (Homo sapiens (Human), UniProt Q9H3R0); assay: JMJD2C in vitro enzyme inhibition assay (TR-FRET); type: biochemical
# Chain of JMJD2C (Q9H3R0 2-372): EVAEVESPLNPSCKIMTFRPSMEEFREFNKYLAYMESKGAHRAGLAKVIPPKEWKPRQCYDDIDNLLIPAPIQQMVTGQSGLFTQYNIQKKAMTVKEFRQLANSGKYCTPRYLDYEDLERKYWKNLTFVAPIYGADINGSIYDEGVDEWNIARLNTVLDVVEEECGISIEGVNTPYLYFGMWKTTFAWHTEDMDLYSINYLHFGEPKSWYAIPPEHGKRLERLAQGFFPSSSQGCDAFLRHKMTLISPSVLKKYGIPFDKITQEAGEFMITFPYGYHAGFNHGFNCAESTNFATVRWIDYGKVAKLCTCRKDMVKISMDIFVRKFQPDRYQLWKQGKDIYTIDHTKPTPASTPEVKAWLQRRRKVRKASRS
# KDM5A/B = assay: In vitro cell-based assay: tri-methyl H3K4 immuno-blotting in ZR-75-1 breast cancer cells; conditions: 72 hours, read-out: Cellular IC50
# Procedure: This quantitative immuno-blotting assay measures the amount tri-methylated histone H3 at amino acid Lysine number 4, a specific substrate […] of the direct enzymatic activity of the histone demethylases KDM5A and KDM5B from extracts of the ZR-75-1 breast cancer cell line.
# This assay is a fluorometric immunoassay for the quantification of tri-methyl H3K4 extracted from cells treated with test compound and is used as a measure of the cellular inhibition of KDM5A/B.
# Extracts were prepared containing all of the cellular histone material using detergent based lysis and sonication methods. These lysates were subsequently normalized for total protein content using a colorimetric bicinchonic acid assay (MicroBCA Pierce/Thermo Scientific). Normalized cell extracts were then subjected to typical immuno-blotting procedures using NuPage reagents (Life Technologies). Electrophoretically separated histones were then transferred and immobilized using polyvinylidene difluoride membrane (Immobilon-FL Millipore). The amount of tri-methylated lysine 4 of histone H3 was detected using an antibody specific to the tri-methylated state (Cell Signaling Technologies) and quantified on an infrared imager using a densitometry software package (Odyssey CLx, Image Studio, Li-Cor). This background subtracted densitometry value was reported as a ration of the GAPDH amount for that sample and then calculated as a percent of the DMSO treated sample. The software package XL-fit (IDBS) was then used to calculate a relative IC50 value for the dilution series of a given test compound according to the equation: fit=(D+((Vmax*(x^n))/((x^n)+(Km^n)))).
# Chain of Jarid1B (Q9UGL1 2-751): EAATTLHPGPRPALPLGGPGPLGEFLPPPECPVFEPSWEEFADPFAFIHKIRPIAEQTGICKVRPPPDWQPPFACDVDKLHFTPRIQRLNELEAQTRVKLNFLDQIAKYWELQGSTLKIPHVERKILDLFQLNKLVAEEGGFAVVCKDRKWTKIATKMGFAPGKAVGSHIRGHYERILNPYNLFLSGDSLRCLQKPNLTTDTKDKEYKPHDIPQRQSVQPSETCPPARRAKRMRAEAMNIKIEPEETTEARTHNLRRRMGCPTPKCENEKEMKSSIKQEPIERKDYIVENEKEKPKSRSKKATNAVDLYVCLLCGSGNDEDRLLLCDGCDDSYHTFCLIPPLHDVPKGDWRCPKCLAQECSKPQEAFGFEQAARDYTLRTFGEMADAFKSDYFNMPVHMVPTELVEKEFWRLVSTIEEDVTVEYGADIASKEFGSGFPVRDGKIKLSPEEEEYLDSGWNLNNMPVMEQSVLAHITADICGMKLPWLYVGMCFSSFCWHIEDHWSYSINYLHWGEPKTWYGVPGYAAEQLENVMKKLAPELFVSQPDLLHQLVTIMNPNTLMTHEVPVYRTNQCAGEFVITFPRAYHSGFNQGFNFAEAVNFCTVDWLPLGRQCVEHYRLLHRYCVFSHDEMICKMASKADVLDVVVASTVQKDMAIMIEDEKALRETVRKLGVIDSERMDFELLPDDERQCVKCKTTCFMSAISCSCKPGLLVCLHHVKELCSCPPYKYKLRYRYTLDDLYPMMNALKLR
# Chain of Jarid1A (P29375 1-1090): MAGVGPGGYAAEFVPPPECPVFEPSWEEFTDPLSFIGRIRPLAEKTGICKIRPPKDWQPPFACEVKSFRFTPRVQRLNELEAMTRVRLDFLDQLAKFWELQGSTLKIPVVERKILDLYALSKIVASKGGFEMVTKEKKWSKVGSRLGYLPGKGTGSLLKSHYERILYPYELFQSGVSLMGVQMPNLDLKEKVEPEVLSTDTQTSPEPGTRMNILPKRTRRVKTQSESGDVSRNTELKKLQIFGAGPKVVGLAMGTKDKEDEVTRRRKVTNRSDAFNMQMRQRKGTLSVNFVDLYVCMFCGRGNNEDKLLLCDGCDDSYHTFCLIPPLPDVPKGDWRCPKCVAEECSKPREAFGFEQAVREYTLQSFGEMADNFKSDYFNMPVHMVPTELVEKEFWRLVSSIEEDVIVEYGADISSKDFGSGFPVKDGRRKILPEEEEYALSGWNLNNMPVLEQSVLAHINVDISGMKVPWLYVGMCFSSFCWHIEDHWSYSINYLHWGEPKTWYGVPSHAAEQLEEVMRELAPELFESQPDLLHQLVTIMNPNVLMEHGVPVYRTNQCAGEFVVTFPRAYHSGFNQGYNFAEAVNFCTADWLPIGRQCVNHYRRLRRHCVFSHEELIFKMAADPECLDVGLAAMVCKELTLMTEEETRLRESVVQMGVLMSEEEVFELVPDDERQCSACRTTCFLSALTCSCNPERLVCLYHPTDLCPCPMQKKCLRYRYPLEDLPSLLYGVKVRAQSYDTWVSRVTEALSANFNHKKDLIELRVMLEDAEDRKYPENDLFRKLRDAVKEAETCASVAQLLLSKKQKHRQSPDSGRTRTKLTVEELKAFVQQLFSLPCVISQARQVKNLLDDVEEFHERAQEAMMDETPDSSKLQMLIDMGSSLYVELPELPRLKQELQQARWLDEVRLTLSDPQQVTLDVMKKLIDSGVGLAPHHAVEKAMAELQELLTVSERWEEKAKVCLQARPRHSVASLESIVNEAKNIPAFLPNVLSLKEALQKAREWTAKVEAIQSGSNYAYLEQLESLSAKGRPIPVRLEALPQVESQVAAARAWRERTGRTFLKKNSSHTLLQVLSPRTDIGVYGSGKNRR
SMILES,pIC50 (Jarid1A),pIC50 (Jarid1B),pIC50 (JMJD2C),pIC50 (KDM5A/B)
CCCn1nc(Nc2cnccc2C(=O)O)c2cc(C#N)ccc21 [Example 53],> 7.00,> 7.00,> 7.00,5.00 to 6.00
"O=C(O)c1ccncc1Nc1nn(C2CCOC2)c2ccc(F)cc12 (stereo not shown) [Example 54, 3-{[5-fluoro-1-(tetrahydrofuran-3-yl)-1H-indazol-3-yl]amino}pyridine-4-carboxylic acid]",> 7.00,> 7.00,> 7.00,5.00 to 6.00
"CN1CCOC(CCn2nc(Nc3cnccc3C(=O)O)c3cc(F)ccc32)C1 (stereo not shown) [Example 58, 3-({5-fluoro-1-[2-(4-methylmorpholin-2-yl)ethyl]-1H-indazol-3-yl}amino)pyridine-4-carboxylic acid]",> 7.00,> 7.00,> 7.00,5.00 to 6.00
"O=C(O)c1ccncc1Nc1nn([C@H]2CCOC2)c2ccc(F)cc12 [Example 66, 3-({5-fluoro-1-[(3S)-tetrahydrofuran-3-yl]-1H-indazol-3-yl}amino)pyridine-4-carboxylic acid]",> 7.00,> 7.00,> 7.00,5.00 to 6.00
"O=C(O)c1ccncc1Nc1nn([C@@H]2CCOC2)c2ccc(F)cc12 [Example 67, 3-({5-fluoro-1-[(3R)-tetrahydrofuran-3-yl]-1H-indazol-3-yl}amino)pyridine-4-carboxylic acid]",> 7.00,> 7.00,> 7.00,5.00 to 6.00
"O=C(O)c1ccncc1Nc1nn(CCN2CCC(F)(F)C2)c2ccc(F)cc12 [Example 71, 3-({1-[2-(3,3-difluoropyrrolidin-1yl)ethyl]-5-fluoro-1H-indazol-3-yl}amino)pyridine-4-carboxylic acid]",> 7.00,> 7.00,> 7.00,5.00 to 6.00
"O=C(O)c1ccncc1Nc1nn(CCN2CCC(F)(F)CC2)c2ccc(F)cc12 [Example 73, 3-({1-[2-(4,4-difluoropiperidin-1yl)ethyl]-5-fluoro-1H-indazol-3-yl}amino)pyridine-4-carboxylic acid]",> 7.00,> 7.00,> 7.00,6.00 to 7.00
